These results are taken from ChEMBL document CHEMBL1201862, “PubChem BioAssay data set” (2004).

Among the test systems are 786-0; ACHN; CAKI-1; CCRF-CEM; HCT-116; HCT-15; K562; KM12; M14; MDA-MB-435; MOLT-4; Malme-3M; NCI-H522; OVCAR-4; RPMI-8226; SF-295; SR; TK-10; U-251; UACC-257.
What all share (assay): growth of human tumour cells (NCI), 48 h

Structures are written as SMILES.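 Exposure lasted 48 hours, with cells grown in 96-well plates and compounds tested at five concentrations. The concentration for 50% growth inhibition is given as GI50.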 Calls of active or inactive are those of the source. Cut-off read from the data, not from the text of the source: active = GI50 up to about 1.1 µM and inactive = higher. Bounds are passed on as bounds.

`COc1ccc2c(c1)c(=Cc1ccc(N(C)C)cc1)c1cc(-c3ccccc3)[n+](C)n12`: the GI50 was 0.423 µM (active) in the experiment with 786-0; 1.14 µM (inactive) in the experiment on ACHN; 1.49 µM (inactive) with CAKI-1; 0.269 µM (active) in the experiment with CCRF-CEM; 0.314 µM (active) in the experiment on HCT-116; 1.65 µM with HCT-15. In addition, the GI50 is 0.214 µM (active) in the experiment with K562; 0.448 µM (active) in the experiment on KM12; 0.312 µM (active) in the experiment with M14; 0.369 µM (active) with MDA-MB-435; 0.305 µM (active) with MOLT-4; 0.343 µM (active) with Malme-3M. Moreover, the GI50 with NCI-H522 was 0.0728 µM (active); in the experiment with OVCAR-4 it was 1.28 µM (inactive); in the experiment on RPMI-8226, 0.182 µM (active); in the experiment on SF-295, 0.264 µM (active); in the experiment with SR, 0.337 µM (active); with TK-10, 0.461 µM (active). For the same compound, the GI50 in the experiment on U-251 is 0.301 µM (active); in the experiment on UACC-257, 0.359 µM (active).

For the compound `CC(C)(C)[Si](C)(C)OC1(CCc2ccccc2OS(=O)(=O)C(F)(F)F)CCCC=C1COCc1ccccc1` (stereo not given), the GI50 in the experiment on 786-0 is > 100 µM (inactive); in the experiment with ACHN, 35.4 µM (inactive); in the experiment on CAKI-1, > 100 µM (inactive); with CCRF-CEM it was 5.19 µM (inactive); in the experiment with HCT-116, 3.33 µM (inactive); with HCT-15, 12.5 µM. The GI50 with K562 was 5.71 µM (inactive); in the experiment with KM12, 14 µM (inactive); in the experiment with MDA-MB-435, > 100 µM (inactive); in the experiment with MOLT-4, 5.14 µM (inactive); with Malme-3M it was 0.202 µM (active); with NCI-H522 it was 2.79 µM (inactive). Moreover, the GI50 in the experiment with OVCAR-4 is 6.05 µM (inactive); with RPMI-8226, 2.95 µM (inactive); in the experiment with SF-295 it was 6.34 µM (inactive); in the experiment on SR, 1.86 µM (inactive); in the experiment on TK-10, > 100 µM (inactive); in the experiment on U-251, 5 µM (inactive).

Take `CC(C)(C)OC(=O)N1CCC(NC(=O)NC2CCN(C(=O)OC(C)(C)C)CC2)CC1`: the GI50 was > 100 µM (inactive) in the experiment on 786-0; > 100 µM (inactive) with ACHN; > 100 µM (inactive) in the experiment on CAKI-1; > 100 µM (inactive) with CCRF-CEM; > 100 µM (inactive) in the experiment with HCT-116; more than 100 µM with HCT-15. Besides, the GI50 with KM12, with M14, in the experiment on MDA-MB-435, in the experiment with Malme-3M, with NCI-H522 and in the experiment with OVCAR-4 was > 100 µM (inactive) each time. The GI50 in the experiment on RPMI-8226, with SF-295, in the experiment on SR, in the experiment on TK-10, in the experiment with U-251 and with UACC-257 was > 100 µM (inactive) each time.

Take `COC1(OC)C2(Cl)C(Cl)=C(Cl)C1(Cl)C1COCC12` (stereo not given): the GI50 in the experiment on 786-0 is > 100 µM (inactive); with ACHN, > 100 µM (inactive); with CAKI-1, > 100 µM (inactive); in the experiment with CCRF-CEM, > 100 µM (inactive); with HCT-15, more than 100 µM; in the experiment on K562, > 88.5 µM (inactive). The GI50 with KM12 was > 100 µM (inactive); in the experiment with M14, > 100 µM (inactive); with MDA-MB-435, 30.8 µM (inactive); with MOLT-4, > 100 µM (inactive); in the experiment with Malme-3M, > 100 µM (inactive); with NCI-H522 it was > 100 µM (inactive). Besides, the GI50 is > 100 µM (inactive) in the experiment on OVCAR-4; > 72.4 µM (inactive) in the experiment on RPMI-8226; > 100 µM (inactive) with SF-295; > 75.3 µM (inactive) with SR; > 40.7 µM (inactive) in the experiment on TK-10; > 44.5 µM (inactive) in the experiment on U-251. In addition, the GI50 with UACC-257 is > 100 µM (inactive).

On to `N=C(N)SCCN1CCCCC1`, for which the GI50 in the experiment with 786-0 is 22.3 µM (inactive); in the experiment on ACHN it was 25.6 µM (inactive); in the experiment with CAKI-1 it was 26.7 µM (inactive); with HCT-116, 26.7 µM (inactive); with HCT-15 it was 25.6 µM; in the experiment on K562 it was 20 µM (inactive). In addition, the GI50 was 40.6 µM (inactive) in the experiment with KM12; 19.9 µM (inactive) with M14; 19.4 µM (inactive) with MDA-MB-435; 20.6 µM (inactive) with MOLT-4; 12.5 µM (inactive) with Malme-3M; 7.5 µM (inactive) with NCI-H522. Besides, the GI50 with OVCAR-4 was 31.6 µM (inactive); in the experiment with RPMI-8226 it was 14.1 µM (inactive); in the experiment with SF-295, > 100 µM (inactive); in the experiment with SR, 21 µM (inactive); in the experiment on TK-10, 43.7 µM (inactive); in the experiment on U-251, 19.9 µM (inactive). Further, the GI50 in the experiment with UACC-257 is 18.6 µM (inactive).

As to `CN1C(=O)C2(C)SC1(c1ccccc1)C1C(=O)N(c3ccccc3)C(=O)C12` (stereo not given), the GI50 was > 100 µM (inactive) in the experiment with 786-0; 91.8 µM (inactive) with ACHN; > 100 µM (inactive) in the experiment on CAKI-1; 70.8 µM (inactive) with HCT-116; 66.4 µM with HCT-15; 57.4 µM (inactive) in the experiment with K562. In addition, the GI50 in the experiment on KM12 was 66.1 µM (inactive); in the experiment with M14, > 100 µM (inactive); in the experiment with MDA-MB-435 it was 76 µM (inactive); with MOLT-4 it was 40.9 µM (inactive); in the experiment with Malme-3M, > 100 µM (inactive); in the experiment on NCI-H522 it was 96.4 µM (inactive). In addition, the GI50 is 41.3 µM (inactive) with OVCAR-4; 49.8 µM (inactive) in the experiment on RPMI-8226; 54.6 µM (inactive) in the experiment with SF-295; 64.1 µM (inactive) in the experiment with SR; 57.4 µM (inactive) in the experiment with TK-10; 67.9 µM (inactive) with U-251. Moreover, in the experiment with UACC-257, the GI50 was 26.4 µM (inactive).

Consider `Cn1c2ccccc2c2c3c(c4c5ccccc5n(C)c4c21)C(=O)c1ccccc1C3=O`, for which the GI50 is 14.1 µM (inactive) with 786-0; 28.2 µM (inactive) in the experiment with ACHN; 33.9 µM (inactive) in the experiment with CAKI-1; > 100 µM (inactive) with CCRF-CEM; 30.1 µM (inactive) with HCT-116; more than 100 µM with HCT-15. Besides, the GI50 was 86.9 µM (inactive) in the experiment on KM12; 76.9 µM (inactive) in the experiment with M14; 51.3 µM (inactive) in the experiment on MDA-MB-435; > 100 µM (inactive) in the experiment on MOLT-4; 29.5 µM (inactive) in the experiment on Malme-3M; 18.9 µM (inactive) in the experiment on NCI-H522. The GI50 with OVCAR-4 was 58.3 µM (inactive); in the experiment with RPMI-8226, 70 µM (inactive); with SF-295, 44.1 µM (inactive); with SR, 18.7 µM (inactive); in the experiment on TK-10, 24.3 µM (inactive); in the experiment on U-251 it was 17.9 µM (inactive). In addition, in the experiment on UACC-257, the GI50 is 79.6 µM (inactive).

With `c1ccc(C2=C(c3ccccc3)Sc3nnc(CCCCCCCCc4nnc5n4NC(c4ccccc4)=C(c4ccccc4)S5)n3N2)cc1`, the GI50 with 786-0 was 61 µM (inactive); in the experiment on ACHN, 53.8 µM (inactive); in the experiment on CAKI-1 it was > 100 µM (inactive); in the experiment on CCRF-CEM, 20.9 µM (inactive); in the experiment on HCT-116, 25.8 µM (inactive); in the experiment on HCT-15, 37.5 µM. Also, the GI50 was 25 µM (inactive) in the experiment with K562; 44.1 µM (inactive) in the experiment on KM12; 29.8 µM (inactive) with M14; 34.9 µM (inactive) in the experiment on MDA-MB-435; 17.9 µM (inactive) in the experiment with MOLT-4; > 100 µM (inactive) in the experiment with Malme-3M. Besides, the GI50 with NCI-H522 was 51.2 µM (inactive); with OVCAR-4, 39.2 µM (inactive); with RPMI-8226, 27.4 µM (inactive); in the experiment with SF-295, 46.7 µM (inactive); in the experiment on SR it was 29.9 µM (inactive); with TK-10, 44.2 µM (inactive). Besides, the GI50 in the experiment with U-251 is 45.2 µM (inactive); with UACC-257, > 100 µM (inactive).

Consider `O=C(COc1ccc(OCC(=O)NNC2=NC(c3cc(F)c(Cl)cc3Cl)CS2)c(Cl)c1)NNC1=NC(c2cc(F)c(Cl)cc2Cl)CS1` (stereo not given), for which the GI50 in the experiment on 786-0 was 60.4 µM (inactive); in the experiment on ACHN, 38.5 µM (inactive); with CCRF-CEM, 28.6 µM (inactive); with HCT-116, 31.5 µM (inactive); in the experiment on HCT-15, 16.7 µM; in the experiment on K562, 24 µM (inactive). For the same compound, the GI50 is 44.4 µM (inactive) with KM12; 74 µM (inactive) in the experiment with M14; 16.7 µM (inactive) in the experiment on MDA-MB-435; 26.2 µM (inactive) in the experiment with MOLT-4; > 100 µM (inactive) in the experiment with Malme-3M; 14.2 µM (inactive) with NCI-H522. The GI50 was 14.7 µM (inactive) with OVCAR-4; 20 µM (inactive) with RPMI-8226; 19.8 µM (inactive) in the experiment with SF-295; 35.9 µM (inactive) with SR; 25.8 µM (inactive) in the experiment with TK-10; 14.4 µM (inactive) in the experiment with U-251. In addition, the GI50 in the experiment with UACC-257 was 48 µM (inactive).

Turning to `Clc1ccc(Cc2nc3cc(Cl)c(Cl)cc3n2CC2CCCN3CCCCC23)cc1Cl` (stereo not given), the GI50 in the experiment with 786-0 is 2.99 µM (inactive); with ACHN it was 4.47 µM (inactive); with CAKI-1, 3.46 µM (inactive); with HCT-116, 3.04 µM (inactive); with HCT-15, 4.76 µM; in the experiment with K562 it was 3.26 µM (inactive). In addition, the GI50 in the experiment on KM12 was 2.19 µM (inactive); in the experiment with M14 it was 2.01 µM (inactive); in the experiment with MDA-MB-435 it was 3.83 µM (inactive); in the experiment with MOLT-4 it was 4.34 µM (inactive); in the experiment with Malme-3M, 1.79 µM (inactive); in the experiment on NCI-H522 it was 1.74 µM (inactive). Also, the GI50 in the experiment with OVCAR-4 was 3.4 µM (inactive); with RPMI-8226, 4.13 µM (inactive); with SF-295, 3.37 µM (inactive); in the experiment on SR it was 2.78 µM (inactive); in the experiment on TK-10, 6.05 µM (inactive); in the experiment on U-251 it was 3.86 µM (inactive). For the same compound, in the experiment on UACC-257, the GI50 is 2.88 µM (inactive).
